Source: patent US10584116B2, “Heterocyclic sulfonamide derivative and medicine containing same” (EA Pharma Co., Ltd., priority 2016, dated 2020)

target: human TRPA1 (Homo sapiens (Human), UniProt O75762); test: Measurement of TRPA1 antagonist activity (intracellular calcium increase induced by allylisothiocyanate in 293T cells transfected with human TRPA1); type: cell-based; conditions: 293T cells expressing human TRPA1, allylisothiocyanate stimulation, FLIPR Calcium4 fluorescence; read-out: hTRPA1 IC50
Procedure: Measurement of TRPA1 Antagonist Activity
Human TRPA1 Expression Plasmid
Using cDNA encoding human TRPA1 (GenBank accession No. NM_007332) (manufactured by Kazusa DNA Research Institute, item No. FHC07217) as a template, primer 1 (SEQ ID NO: 1) and primer 2 (SEQ ID NO: 2), PCR by PfuUltra High-Fidelity DNA Polymerase (Stratagene) was performed, and full-length human TRPA1 gene was amplified.
A recognition site (underlined) of restriction enzyme HindIII was added to the 5′ end of human TRPA1 gene, and XbaI site (underlined) was added to the 3′ end of human TRPA1 gene, and GTT of the template sequence was changed to termination codon TAG (bold). The obtained double stranded DNA was enzyme-digested with HindIII and XbaI, and introduced into a multicloning site of expression plasmid pcDNA3.1/zeo(+) (manufactured by Invitrogen) to give a human TRPA1 expression plasmid.
Human embryonic kidney-derived 293T cells were cultured in Dulbecco's Modified Eagle Medium containing 10% fetal bovine serum, 10 unit penicillin, and 10 μg streptomycin. One day before assay, 3×10^6 of 293T cells were plated on a petri dish having a diameter of 10 cm, and cultured in a CO2 incubator for 24 hr. OPTI-MEM I Reduced Serum Media (Invitrogen) (600 μL), Mirus TransIT-293 (Mirus Bio) (18 μL), and human TRPA1 expression plasmid (6 μg) were mixed, the total amount of the mixture was added to the cells on the petri dish to allow for gene transfer. The cells were recovered about for 8 hr later, plated on a poly-D-lysine coated 384 well black/clear bottom plate at 12,000 cells/well, and cultured overnight.
Measurement of Intracellular Calcium Increase
The medium was removed from the 384 well plate, calcium indicator (Molecular Device, trade name: FLIPR Calcium4 Assay Kit) dissolved in HBSS (Thermo Fisher Scientific) (pH 7.2) containing 20 mM HEPES was added (38 μL/well), and the cells were stained in a CO2 incubator for 1 hr. The 384 well plate was stood at room temperature for not less than 15 min, set on FDSS7000 (Hamamatsu Photonics K.K.), and a test substance solution was added at 10 μL/well. After 10 min, allylisothiocyanate solution (12 μL/well) was added, the relative fluorescence intensity was measured for 5 min after addition of the allylisothiocyanate solution.
Test Substance Preparation
Preparation of Test Substance Solution and Allylisothiocyanate Solution
A test substance solution was prepared to have a composition of HBSS (Thermo Fisher Scientific) (pH 7.2) containing 0.48% dimethyl sulfoxide, a test substance at 4.8-fold concentration of the evaluation concentration, 0.1% bovine serum albumin and 20 mM HEPES. An allylisothiocyanate solution was prepared to have a composition of HBSS (Thermo Fisher Scientific) (pH 7.2) containing 0.1% dimethyl sulfoxide, 100 μM allylisothiocyanate, 0.1% bovine serum albumin and 20 mM HEPES.
Calculation of Antagonist Activity
The activity rate of a test substance at each concentration was calculated, wherein the relative fluorescence intensity change of a well free of a test substance and containing allylisothiocyanate is 100% activity rate, and the relative fluorescence intensity change of a well free of a test substance and allylisothiocyanate is 0% activity rate. The inhibitory rate of a test substance at each concentration was calculated by subtracting the activity rate of the test substance from 100% activity rate, and the concentration of a test substance showing 50% inhibitory rate was calculated as IC50 from the sigmoid approximate curve by XLfit (idbs).

Sequence of human TRPA1 (O75762 whole entry): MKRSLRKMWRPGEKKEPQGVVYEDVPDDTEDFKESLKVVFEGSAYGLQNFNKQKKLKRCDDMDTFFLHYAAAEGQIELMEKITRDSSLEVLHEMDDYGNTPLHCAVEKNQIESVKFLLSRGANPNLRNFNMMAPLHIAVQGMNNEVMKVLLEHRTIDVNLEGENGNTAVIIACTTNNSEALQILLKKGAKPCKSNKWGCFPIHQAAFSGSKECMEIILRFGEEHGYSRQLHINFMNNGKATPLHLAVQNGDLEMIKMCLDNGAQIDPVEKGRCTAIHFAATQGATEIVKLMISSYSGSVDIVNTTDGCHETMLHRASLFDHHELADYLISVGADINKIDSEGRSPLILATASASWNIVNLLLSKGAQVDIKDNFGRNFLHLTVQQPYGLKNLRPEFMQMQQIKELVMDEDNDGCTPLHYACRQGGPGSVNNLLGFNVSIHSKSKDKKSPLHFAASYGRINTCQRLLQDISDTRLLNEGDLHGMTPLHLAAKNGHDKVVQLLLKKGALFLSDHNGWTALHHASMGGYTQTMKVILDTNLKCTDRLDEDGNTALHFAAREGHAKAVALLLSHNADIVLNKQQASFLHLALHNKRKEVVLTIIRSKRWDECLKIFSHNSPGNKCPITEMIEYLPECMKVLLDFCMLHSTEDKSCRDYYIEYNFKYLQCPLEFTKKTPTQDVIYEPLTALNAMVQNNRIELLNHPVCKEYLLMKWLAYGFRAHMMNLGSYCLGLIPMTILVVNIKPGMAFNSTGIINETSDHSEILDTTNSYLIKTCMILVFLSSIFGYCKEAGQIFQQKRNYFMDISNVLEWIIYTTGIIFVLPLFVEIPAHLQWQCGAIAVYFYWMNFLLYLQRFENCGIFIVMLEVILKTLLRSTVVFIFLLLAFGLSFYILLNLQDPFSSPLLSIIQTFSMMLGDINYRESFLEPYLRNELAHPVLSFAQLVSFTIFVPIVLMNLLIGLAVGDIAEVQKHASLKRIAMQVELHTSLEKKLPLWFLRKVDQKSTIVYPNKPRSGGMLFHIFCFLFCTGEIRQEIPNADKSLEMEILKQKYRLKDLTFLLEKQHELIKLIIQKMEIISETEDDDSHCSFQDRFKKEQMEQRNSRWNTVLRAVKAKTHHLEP

SMILES | IC50
O=C(NCc1ccc(=O)n(-c2ccc(C(F)(F)F)cc2)c1)[C@@H]1CCCN1S(=O)(=O)c1cc2ccccc2o1 [Example 14, (2S)-1-(benzofuran-2-ylsulfonyl)-N-[[6-oxo-1-[4-(trifluoromethyl)phenyl]-3-pyridyl]methyl]pyrrolidine-2-carboxamide] | 0.16 µM
CC(C)n1c(=O)c(CNC(=O)[C@@H]2CCCN2S(=O)(=O)c2cc3ccccc3o2)cn(-c2ccc(C(F)(F)F)nc2)c1=O [Example 29, (2S)-1-(benzofuran-2-ylsulfonyl)-N-[[3-isopropyl-2,4-dioxo-1-[6-(trifluoromethyl)-3-pyridyl]pyrimidin-5-yl]methyl]pyrrolidine-2-carboxamide] | 0.03 µM
CC(C)n1c(=O)c(CNC(=O)[C@@H]2[C@@H](O)CCN2S(=O)(=O)c2cc3cc(F)ccc3o2)cn(-c2ccc(C(F)(F)F)nc2)c1=O [Example 31, (2S,3S)-1-(5-fluorobenzofuran-2-yl)sulfonyl-3-hydroxy-N-[[3-isopropyl-2,4-dioxo-1-[6-(trifluoromethyl)-3-pyridyl]pyrimidin-5-yl]methyl]pyrrolidine-2-carboxamide] | 0.38 µM
CC(C)n1c(=O)c(CNC(=O)[C@@H]2CCCN2S(=O)(=O)c2cc3ccccc3o2)cn(-c2ccc(F)cc2)c1=O [Example 38, (2S)-1-(benzofuran-2-ylsulfonyl)-N-[[1-(4-fluorophenyl)-3-isopropyl-2,4-dioxo-pyrimidin-5-yl]methyl]pyrrolidine-2-carboxamide] | 0.24 µM
CC(C)n1c(=O)c(CNC(=O)[C@@H]2[C@@H](O)CCN2S(=O)(=O)c2cc3cc(F)ccc3o2)cn(-c2ccc(C(F)(F)F)cn2)c1=O [Example 35, (2S,3S)-1-(5-fluorobenzofuran-2-yl)sulfonyl-3-hydroxy-N-[[3-isopropyl-2,4-dioxo-1-[5-(trifluoromethyl)-2-pyridyl]pyrimidin-5-yl]methyl]pyrrolidine-2-carboxamide] | 0.16 µM
CC(C)n1c(=O)c(CNC(=O)[C@@H]2CCCN2S(=O)(=O)c2cc3ccccc3o2)cn(-c2ccc(C(F)(F)F)cn2)c1=O [Example 33, (2S)-1-(benzofuran-2-ylsulfonyl)-N-[[3-isopropyl-2,4-dioxo-1-[5-(trifluoromethyl)-2-pyridyl]pyrimidin-5-yl]methyl]pyrrolidine-2-carboxamide] | 0.044 µM
CC(C)n1c(=O)c(CNC(=O)C2(NS(=O)(=O)c3cc4cc(F)ccc4o3)CC2)cn(-c2ccc(C(F)(F)F)cc2)c1=O [Example 26] | 0.25 µM
CCn1c(=O)c(CNC(=O)[C@@H]2CCCN2S(=O)(=O)c2cc3cc(F)ccc3o2)cn(-c2ccc(C(F)(F)F)cc2)c1=O [Example 4, (2S)-1-(5-fluorobenzofuran-2-yl)sulfonyl-N-[[3-ethyl-2,4-dioxo-1-[4-(trifluoromethyl)phenyl]pyrimidin-5-yl]methyl]pyrrolidine-2-carboxamide] | 0.011 µM
CC(C)n1cc(CNC(=O)[C@@H]2CCCN2S(=O)(=O)c2cc3c(F)cccc3o2)cc(-c2ccc(C(F)(F)F)cc2)c1=O [Example 45, (2S)-1-(4-fluorobenzofuran-2-yl)sulfonyl-N-[[1-isopropyl-6-oxo-5-[4-(trifluoromethyl)phenyl]-3-pyridyl]methyl]pyrrolidine-2-carboxamide] | 0.086 µM
CC(C)n1c(=O)c(CNC(=O)[C@@H]2[C@@H](O)CCN2S(=O)(=O)c2cc3cc(F)ccc3o2)cn(-c2ccc(C(F)(F)F)cc2)c1=O [Example 8, (2S,3S)-1-(5-fluorobenzofuran-2-yl)sulfonyl-3-hydroxy-N-[[3-isopropyl-2,4-dioxo-1-[4-(trifluoromethyl)phenyl]pyrimidin-5-yl]methyl]pyrrolidine-2-carboxamide] | 0.064 µM
CC(C)n1cc(-c2ccc(C(F)(F)F)cn2)cc(CNC(=O)[C@@H]2CCCN2S(=O)(=O)c2cc3ccccc3o2)c1=O [Example 42, (2S)-1-(benzofuran-2-ylsulfonyl)-N-[[1-isopropyl-2-oxo-5-[5-(trifluoromethyl)-2-pyridyl]-3-pyridyl]methyl]pyrrolidine-2-carboxamide] | 0.079 µM
CC(C)n1c(=O)c(CNC(=O)[C@H](C)NS(=O)(=O)c2cc3cc(F)ccc3o2)cn(-c2ccc(C(F)(F)F)cc2)c1=O [Example 24] | 0.042 µM
CC(C)n1c(=O)c(CNC(=O)[C@@H]2CCCN2S(=O)(=O)c2cc3cnccc3o2)cn(-c2ccc(C(F)(F)F)nc2)c1=O [Example 32, (2S)-1-fro[3,2-c]pyridin-2-ylsulfonyl-N-[[3-isopropyl-2,4-dioxo-1-[6-(trifluoromethyl)-3-pyridyl]pyrimidin-5-yl]methyl]pyrrolidine-2-carboxamide] | 0.57 µM
CC(C)n1cc(-c2ccc(C(F)(F)F)cn2)cc(CNC(=O)[C@@H]2CCCN2S(=O)(=O)c2cc3cc(F)ccc3o2)c1=O [Example 43, (2S)-1-(5-fluorobenzofuran-2-yl)sulfonyl-N-[[1-isopropyl-2-oxo-5-[5-(trifluoromethyl)-2-pyridyl]-3-pyridyl]methyl]pyrrolidine-2-carboxamide] | 0.023 µM
CC(C)n1c(=O)c(CNC(=O)[C@@H]2CCCN2S(=O)(=O)c2cc3ccccc3s2)cn(-c2ccc(C(F)(F)F)cc2)c1=O [Example 19, (2S)-1-(benzothiophen-2-ylsulfonyl)-N-[[3-isopropyl-2,4-dioxo-1-[4-(trifluoromethyl)phenyl]-pyrimidin-5-yl]methyl]pyrrolidine-2-carboxamide] | 0.056 µM
O=C(NCc1cn(-c2ccc(C(F)(F)F)cc2)c(=O)n(C2CCOCC2)c1=O)[C@@H]1CCCN1S(=O)(=O)c1cc2ccccc2o1 [Example 9, (2S)-1-(benzofuran-2-ylsulfonyl)-N-[[2,4-dioxo-3-tetrahydropyran-4-yl-1-[4-(trifluoromethyl)phenyl]-pyrimidin-5-yl]methyl]pyrrolidine-2-carboxamide] | 0.14 µM
CC(C)n1cc(CNC(=O)[C@@H]2CCCN2S(=O)(=O)c2cc3ccccc3o2)cc(-c2ccc(C(F)(F)F)cc2)c1=O [Example 13, (2S)-1-(benzofuran-2-ylsulfonyl)-N-[[1-isopropyl-6-oxo-5-[4-(trifluoromethyl)phenyl]-3-pyridyl]methyl]pyrrolidine-2-carboxamide] | 0.027 µM
CC(C)n1c(=O)c(CNC(=O)[C@@H]2CCCN2S(=O)(=O)c2cc3cc(F)ccc3o2)cn(-c2ccc(C(F)(F)F)cn2)c1=O [Example 34, (2S)-1-(5-fluorobenzofuran-2-yl)sulfonyl-N-[[3-isopropyl-2,4-dioxo-1-[5-(trifluoromethyl)-2-pyridyl]pyrimidin-5-yl]methyl]pyrrolidine-2-carboxamide] | 0.018 µM
CC(C)n1c(=O)c(CNC(=O)[C@@H]2CCCN2S(=O)(=O)c2cc3cnccc3o2)cn(-c2ccc(C(F)(F)F)cc2)c1=O [Example 23, (2S)-1-fro[3,2-c]pyridin-2-ylsulfonyl-N-[[3-isopropyl-2,4-dioxo-1-[4-(trifluoromethyl)phenyl]-pyrimidin-5-yl]methyl]pyrrolidine-2-carboxamide] | 0.02 µM
CC(C)n1cc(-c2ccc(C(F)(F)F)cc2)cc(CNC(=O)[C@@H]2CCCN2S(=O)(=O)c2cc3ccccc3o2)c1=O [Example 15, (2S)-1-(benzofuran-2-ylsulfonyl)-N-[[1-isopropyl-2-oxo-5-[4-(trifluoromethyl)phenyl]-3-pyridyl]methyl]pyrrolidine-2-carboxamide] | 0.079 µM
CC(C)n1cc(-c2ccc(C(F)(F)F)nc2)cc(CNC(=O)[C@@H]2CCCN2S(=O)(=O)c2cc3ccccc3o2)c1=O [Example 28, (2S)-1-(benzofuran-2-ylsulfonyl)-N-[[1-isopropyl-2-oxo-5-[6-(trifluoromethyl)-3-pyridyl]-3-pyridyl]methyl]pyrrolidine-2-carboxamide] | 0.18 µM
